Measured values: PMC5049785, “Characterization of Novel Antimalarial Compound ACT-451840: Preclinical Assessment of Activity and Dose–Efficacy Modeling” (PLoS Medicine, 2016)
Read-outs that look alike come from different tables or passages of the source. Values belong to the molecule of their own block, whether it stands above or below them.

How the values were obtained:
[1] = test system: P. falciparum strain 3D7 (MR4); design: method as in PMID 16735432; settings: 10 x IC50; cited from earlier work
[2] = test system: P. falciparum TM90C2A (Thailand); assay: [3H]-hypoxanthine incorporation assay, TM90C2A; format: cell-based, Plasmodium falciparum; settings: Plasmodium falciparum
[3] = test system: P. vivax clinical isolates (Papua, Indonesia); assay: Ex vivo drug susceptibility, P. vivax clinical isolates; format: cell-based, Plasmodium vivax; settings: Plasmodium vivax, read-out: median IC50
Procedure: (§1) […]. Thick blood films made from each well were stained with 5% Giemsa solution for 30 min and examined microscopically. The number of schizonts per 200 asexual-stage parasites was determined for each drug concentration and normalized to the control well.

[4] = test system: P. falciparum 7G8 (Brazil); assay: [3H]-hypoxanthine incorporation assay, 7G8; format: cell-based, Plasmodium falciparum; settings: Plasmodium falciparum
[5] = test system: GFP-transfected P. berghei ANKA strain; assay: In vivo efficacy, P. berghei mouse model; design: species or system Plasmodium berghei in female NMRI mice; settings: 100 mg/kg quadruple-dose regimen
Procedure: In vivo efficacy against P. berghei was conducted at the Swiss TPH as previously described, with the modification that female NMRI mice from Harlan (Horst, The Netherlands) (n = 3) were infected with a GFP-transfected P. berghei ANKA strain (kindly donated by A. P. Waters and C. J. Janse, Leiden University Medical Center, The Netherlands) and parasitemia was determined using standard flow cytometry techniques. ACT-451840 was dissolved or suspended in corn oil before dosing and administered 24 h after infection (single-dose regimen) or 24, 48, and 72 h after infection (triple-dose regimen). With the single-dose regimen, blood was collected on Day 3 (72 h after infection). Samples for the triple-dose regimens were collected on Day 4 (96 h after infection). Antimalarial activity was calculated as the difference between the mean percent parasitemia for the control and treated groups expressed as a percent relative to the control group, consisting of five mice. Control mice were euthanized on Day 4 in order to prevent death typically occurring on Day 6. For the consistency in PK/PD modeling, Day 5 instead of Day 6 was considered the day of death, because treated animals were always euthanized one day before their natural death for animal welfare reasons. Animals were considered cured if there were no detectable parasites on Day 30 post-infection. To confirm the reliability of this assumption, blood from the surviving mice in curative experiments was inoculated into uninfected mice, and no parasitemia developed in these mice even after 30 d. The antimalarial efficacy is defined either as antimalarial activity or as survival: the two readouts of the P. berghei murine model.

[6] = test system: Cam3.II^rev parasites (K13 wild-type); assay: microbe, parasite or virus in culture; format: cell-based, P. falciparum; settings: for IC50: Plasmodium falciparum, 72 h
Procedure: (§2) Parasites were cultured at Columbia University Medical Center (New York, USA) as previously described (1). Cam3.II and V1/S parasites, which had been genetically engineered to express K13 wild-type or K13 C580Y were seeded in a 96-well plate at 0.2% parasitemia and 1% hematocrit (2). […] Parasites were then stained with SYBR Green I (Invitrogen) and MitoTracker Deep Red (ThermoFisher Scientific) for 20 minutes at 37 °C (3). Stained parasites were detected using a BD Accuri 6 Flow Cytometer, and analyzed using FlowJo Software. IC50 values were determined by nonlinear regression using GraphPad Prism 6.0. For statistical analyses, Student’s t-tests were performed, and significance was set at P < 0.05.
(§3) Values indicate mean ± SEM, shown in nM. Significance determined by Student's t-test against parental lines.

Cam3.II^C580Y parasites = assay: microbe, parasite or virus in culture; format: cell-based, P. falciparum; settings: for IC50: Plasmodium falciparum, 72 h
Procedure: as §2, §3

[7] = test system: P. falciparum D6 (Sierra Leone); assay: [3H]-hypoxanthine incorporation assay, D6; format: cell-based, Plasmodium falciparum; settings: Plasmodium falciparum
[8] = test system: P. falciparum clinical isolates (Papua, Indonesia); assay: Ex vivo drug susceptibility, P. falciparum clinical isolates; format: cell-based, Plasmodium falciparum; settings: Plasmodium falciparum, read-out: median IC50
Procedure: as §1

[9] = test system: P. falciparum V1/S (Vietnam); assay: [3H]-hypoxanthine incorporation assay, V1/S; format: cell-based, Plasmodium falciparum; settings: Plasmodium falciparum, read-out: 50% inhibitory concentration (IC50)
[10] = test system: P. falciparum K1 (Thailand); assay: [3H]-hypoxanthine incorporation assay, K1; format: cell-based, Plasmodium falciparum; settings: Plasmodium falciparum
[11] = test system: P. falciparum NF54 strain; assay: [3H]-hypoxanthine incorporation assay, NF54; format: cell-based, Plasmodium falciparum; settings: Plasmodium falciparum
Procedure: In vitro time-, stage-, and concentration-dependent effects were assessed using pyrimethamine as a stage-specific and slow-acting control, as described elsewhere.

[12] = test system: P. falciparum PfNF54^0230/N3; assay: In vivo efficacy, P. falciparum mouse model (GSK); settings: oral quadruple-dose regimen, once a day
Procedure: In vivo efficacy against P. falciparum was conducted at GSK according to the standard assay previously described. Female NODscidIL2Rγnull mice were engrafted with human erythrocytes and infected with the isolate P. falciparum PfNF54^0230/N3, a strain developed at GSK for growth in engrafted mice. […] Blood samples were collected on Days 3, 4, 5, 6, and 7 (n = 3 per time point) for parasitemia measurement by flow cytometry. Similarly, blood samples were collected at 0.5, 1, 2, 4, 6, 8, 12, 24, and 48 h after a single administration of 4.7 mg/kg of ACT-451840 to a parallel group of three P. falciparum-infected mice for PK parameters determination. Results are expressed exclusively as antimalarial activity in the P. falciparum murine model.

[13] = test system: P. falciparum W2 (Vietnam); assay: [3H]-hypoxanthine incorporation assay, W2; format: cell-based, Plasmodium falciparum; settings: Plasmodium falciparum
[14] = test system: V1/S parasites (K13 wild-type); assay: microbe, parasite or virus in culture; format: cell-based, P. falciparum
Procedure: as §2, §3

V1/S^C580Y parasites = assay: microbe, parasite or virus in culture; format: cell-based, P. falciparum
Procedure: as §2, §3

[15] = read-out: 50% inhibitory concentration (IC50)
[16] = P. vivax clinical isolates, n = 34 (open symbols)
[17] = 7G8, read-out: 50% inhibitory concentration (IC50)
[18] = D6, read-out: 50% inhibitory concentration (IC50)
[19] = P. falciparum clinical isolates, n = 27 (closed symbols)
[20] = K1, read-out: 50% inhibitory concentration (IC50)

Compound: C[C@@H]1CC[C@H]2[C@@H](C)C(=O)O[C@@H]3O[C@@]4(C)CC[C@@H]1[C@]32OO4 [artemisinin]
- parasite clearance time to kill 99.9% of the initial population [1]: less than 24 h

Compound: O=C1C(O)=C([C@H]2CC[C@H](c3ccc(Cl)cc3)CC2)C(=O)c2ccccc21 [atovaquone]
- lag phase in the killing curve [1]: 48 h

Compound: C[C@H]1[C@H](OC(=O)CCC(=O)O)O[C@@H]2O[C@@]3(C)CC[C@H]4[C@H](C)CC[C@@H]1[C@@]24OO3 [Artesunate, artesunate]
- IC50 [2, 15]: 4.6 ± 1.7 nM
- IC50 [3, 16]: 2.9 nM
- IC50 [4, 17]: 1.8 ± 0.2 nM
- infected mice cured [5]: 50%
- IC50 [6]: 6.7 ± 0.7 nM
- IC50 (Cam3.II^C580Y parasites): 6.6 ± 0.3 nM
- IC50 [7, 18]: 7.1 ± 1.9 nM
- IC50 [8, 19]: 2.6 nM
- IC50 [9]: 3.2 ± 0.5 nM
- IC50 [10, 20]: 2.7 ± 0.4 nM

Compound: CCN(CC)CCCC(C)Nc1ccnc2cc(Cl)ccc12 (stereo not shown) [Chloroquine, chloroquine]
- IC50 ([11]; NF54, read-out: 50% inhibitory concentration (IC50)): 11 ± 2.1 nM
- IC50 [2, 15]: 174 ± 19 nM
- IC50 [3]: 43.9 nM
- IC50 [4, 17]: 137 ± 21 nM
- IC50 [7, 18]: 16 ± 1.2 nM
- effective dose resulting in 90% antimalarial activity (ED90) [12]: 4.9 mg/kg
- IC50 ([13]; W2, read-out: 50% inhibitory concentration (IC50)): 326 ± 38 nM
- IC50 [8]: 101 nM
- IC50 [9]: 458 ± 66 nM
- IC50 [10, 20]: 303 ± 37 nM

- IC50 [3, 16]: 12.3 nM
- IC50 [8, 19]: 16.8 nM
Compound: CCN(CC)Cc1cc(Nc2ccnc3cc(Cl)ccc23)ccc1O [Amodiaquine]

Compound: OC(c1cc(C(F)(F)F)nc2c(C(F)(F)F)cccc12)C1CCCCN1 (stereo not shown) [Mefloquine, mefloquine]
- IC50 [3, 16]: 15.2 nM
- IC50 fold change ([6]; Cam3.II^rev (parental reference line)): 1.0
- IC50 [6]: 12 ± 1.5 nM
- IC50 ([14]; Plasmodium falciparum, 72 h): 1.3 ± 0.4 nM
- IC50 fold change ([14]; V1/S (parental reference line)): 1.0
- IC50 fold change (Cam3.II^C580Y parasites; Cam3.II^C580Y versus Cam3.II^rev): 1.2
- IC50 (Cam3.II^C580Y parasites): 14 ± 0.9 nM
- IC50 (V1/S^C580Y parasites; Plasmodium falciparum, 72 h): 0.8 ± 0.3 nM
- IC50 fold change (V1/S^C580Y parasites; V1/S^C580Y versus V1/S): 0.6
- IC50 [8, 19]: 13.4 nM

- IC50 [3, 16]: 14.8 nM
- IC50 [8, 19]: 25 nM
Compound: Clc1ccc2c(N3CCN(CCCN4CCN(c5ccnc6cc(Cl)ccc56)CC4)CC3)ccnc2c1 [Piperaquine]

- IC50 ([11]; read-out: 50% inhibitory concentration (IC50), NF54, no resistance, mean ± SD, n = 3): 18 ± 0.8 nM
- IC50 ([2]; read-out: 50% inhibitory concentration (IC50), resistance CQ, PYR, MFQ, CYC, mean ± SD): 19200 nM
- IC50 ([4]; read-out: 50% inhibitory concentration (IC50), 7G8, resistance CQ, PYR, CYC, mean ± SD): 10500 nM
- IC50 ([7]; read-out: 50% inhibitory concentration (IC50), D6, resistance MFQ, mean ± SD): 5.4 ± 1.3 nM
- IC50 ([13]; read-out: 50% inhibitory concentration (IC50), W2, resistance CQ, SUL, PYR, CYC, mean ± SD): 13900 nM
- IC50 ([9]; V1/S, resistance CQ, SUL, PYR, CYC, mean ± SD): 21900 nM
- IC50 ([10]; read-out: 50% inhibitory concentration (IC50), K1, resistance CQ, SUL, PYR, CYC, mean ± SD): 10100 nM
Compound: CCc1nc(N)nc(N)c1-c1ccc(Cl)cc1 [Pyrimethamine, pyrimethamine]
